Source: patent US20230085307A1, “PYRIDAZINONE COMPOUND AND HERBICIDE” (NISSAN CHEMICAL CORPORATION, priority 2019, published 2023)

Assays:
velvetleaf = experiment: Test Example 5: herbicidal effect by foliage application, plastic box (Table 20, symbol M); assay type: in vivo, velvetleaf (Abutilon theophrasti); details: foliage application after 14-day growth, evaluated three weeks after application
Procedure, shortened: (§1)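 Plants sown in sterilized diluvial soil and grown 14 days in a greenhouse at 25° C to 30° C, then sprayed on the foliage with the compound's emulsion diluted in water to a predetermined herbicide amount. Injury to weeds and crops scored three weeks after application on a visual rating scale.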

late watergrass [1] = experiment: Test Example 2: herbicidal activity, application during weed generation under submerged conditions (Table 17, symbol A); assay type: in vivo, late watergrass (Echinochloa oryzicola); details: AAH 320 g/ha; application during weed generation, submerged conditions
Procedure, shortened: (§2)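 Wagner pot, alluvial soil, 4 cm flood; mixed sowing of all species; greenhouse 25° C.–30° C. Emulsifiable formulation, water-diluted to predetermined dose, applied to paddy water at 1–2 leaf stage. Effect rated at 3 wk using the earlier test's scoring criteria.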

Japanese bulrush [2] = experiment: Test Example 2: herbicidal activity, application during weed generation under submerged conditions (Table 17, symbol B); assay type: in vivo, Japanese bulrush (Schoenoplectus juncoides); details: AAH 320 g/ha; application during weed generation, submerged conditions
Procedure, shortened: as §2

chickweed = experiment: Test Example 5: herbicidal effect by foliage application, plastic box (Table 20, symbol P); assay type: in vivo, common chickweed (Stellaria media); details: foliage application after 14-day growth, evaluated three weeks after application
Procedure, shortened: as §1

green foxtail = experiment: Test Example 5: herbicidal effect by foliage application, plastic box (Table 20, symbol G); assay type: in vivo, green foxtail (Setaria viridis); details: foliage application after 14-day growth, evaluated three weeks after application
Procedure, shortened: as §1

lambsquarters = experiment: Test Example 5: herbicidal effect by foliage application, plastic box (Table 20, symbol O); assay type: in vivo, lambsquarters (Chenopodium album); details: foliage application after 14-day growth, evaluated three weeks after application
Procedure, shortened: as §1

persian speedwell = experiment: Test Example 5: herbicidal effect by foliage application, plastic box (Table 20, symbol R); assay type: in vivo, Persian speedwell (Veronica persica); details: foliage application after 14-day growth, evaluated three weeks after application
Procedure, shortened: as §1

Chinese sprangletop = experiment: Test Example 3: herbicidal effect by foliage application, Wagner pot (Table 18, symbol D); assay type: in vivo, chinese sprangletop (Leptochloa chinensis); details: 320 g/ha
Procedure, shortened: (§3)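 Plants were sown in alluvial soil held under 0.1–0.5 cm standing water and grown 14 days in a greenhouse at 25–30 °C. An emulsifiable formulation, water-diluted to the set dose, was then sprayed onto the foliage, and effects were scored three weeks later using previously defined criteria.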

oval-leafed pondweed [3] = experiment: Test Example 1: herbicidal activity, application before weed generation under submerged conditions (Table 16, symbol C); assay type: in vivo, oval-leafed pondweed (Monochoria vaginalis); details: amount of applied herbicide 320 g/ha
Procedure, shortened: (§4)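 Emulsion formulation, water-diluted to set dose, was put onto the flooded surface (4 cm depth, alluvial soil) the same day weeds were sown and 2.5-leaf rice transplanted. After 3 weeks at 25-30 °C under glass, each species was rated 0 (≤5% kill) to 5 (≥90% kill).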

Japanese bulrush [4] = experiment: Test Example 1: herbicidal activity, application before weed generation under submerged conditions (Table 16, symbol B); assay type: in vivo, Japanese bulrush (Schoenoplectus juncoides); details: amount of applied herbicide 320 g/ha
Procedure, shortened: as §4

late watergrass [5] = experiment: Test Example 1: herbicidal activity, application before weed generation under submerged conditions (Table 16, symbol A); assay type: in vivo, late watergrass (Echinochloa oryzicola); details: amount of applied herbicide 320 g/ha
Procedure, shortened: as §4

oval-leafed pondweed [6] = experiment: Test Example 2: herbicidal activity, application during weed generation under submerged conditions (Table 17, symbol C); assay type: in vivo, oval-leafed pondweed (Monochoria vaginalis); details: AAH 320 g/ha; application during weed generation, submerged conditions
Procedure, shortened: as §2

blackgrass = experiment: Test Example 5: herbicidal effect by foliage application, plastic box (Table 20, symbol J); assay type: in vivo, blackgrass (Alopecurus myosuroides); details: foliage application after 14-day growth, evaluated three weeks after application
Procedure, shortened: as §1

barnyard grass [7] = experiment: Test Example 3: herbicidal effect by foliage application, Wagner pot (Table 18, symbol H); assay type: in vivo, barnyard grass (Echinochloa crus-galli); details: 320 g/ha
Procedure, shortened: as §3

windgrass = experiment: Test Example 5: herbicidal effect by foliage application, plastic box (Table 20, symbol L); assay type: in vivo, windgrass (Apera spica-venti); details: foliage application after 14-day growth, evaluated three weeks after application
Procedure, shortened: as §1

Italian ryegrass = experiment: Test Example 5: herbicidal effect by foliage application, plastic box (Table 20, symbol K); assay type: in vivo, Italian ryegrass (Lolium multiflorum); details: foliage application after 14-day growth, evaluated three weeks after application
Procedure, shortened: as §1

barnyard grass [8] = experiment: Test Example 5: herbicidal effect by foliage application, plastic box (Table 20, symbol H); assay type: in vivo, barnyard grass (Echinochloa crus-galli); details: foliage application after 14-day growth, evaluated three weeks after application
Procedure, shortened: as §1

southern crabgrass = experiment: Test Example 5: herbicidal effect by foliage application, plastic box (Table 20, symbol F); assay type: in vivo, southern crabgrass (Digitaria ciliaris); details: foliage application after 14-day growth, evaluated three weeks after application
Procedure, shortened: as §1

rice flat sedge = experiment: Test Example 3: herbicidal effect by foliage application, Wagner pot (Table 18, symbol E); assay type: in vivo, rice flat sedge (Cyperus iria); details: 320 g/ha
Procedure, shortened: as §3

wild oat = experiment: Test Example 5: herbicidal effect by foliage application, plastic box (Table 20, symbol I); assay type: in vivo, wild oat (Avena fatua); details: foliage application after 14-day growth, evaluated three weeks after application
Procedure, shortened: as §1

redroot pigweed = experiment: Test Example 5: herbicidal effect by foliage application, plastic box (Table 20, symbol N); assay type: in vivo, redroot pigweed (Amaranthus retroflexus); details: foliage application after 14-day growth, evaluated three weeks after application
Procedure, shortened: as §1

[9] = amount of applied herbicide 320 g/ha

CCCC(=O)Oc1c(C)nn(C)c(=O)c1-c1c(-c2ccc(Cl)cc2)sc2c(F)cccc12 [4-041]
herbicidal effect on M: velvetleaf (evaluation grade 0-5) (velvetleaf; 320 g/ha): 5 (Herbicidal rate of 90% or more (almost completely withered))
herbicidal effect rating, A: late watergrass (late watergrass [1]): 0 (Herbicidal rate of 5% or less (almost no effect))
herbicidal effect rating, B: Japanese bulrush (Japanese bulrush [2]): 3 (Herbicidal rate of 40% or more and less than 70%)
herbicidal effect on P: chickweed (evaluation grade 0-5) (chickweed; 320 g/ha): 5 (Herbicidal rate of 90% or more (almost completely withered))
herbicidal effect on G: green foxtail (evaluation grade 0-5) (green foxtail; 320 g/ha): 3 (Herbicidal rate of 40% or more and less than 70%)
herbicidal effect on O: lambsquarters (evaluation grade 0-5) (lambsquarters; 320 g/ha): 3 (Herbicidal rate of 40% or more and less than 70%)
herbicidal effect on R: persian speedwell (evaluation grade 0-5) (persian speedwell; 320 g/ha): 5 (Herbicidal rate of 90% or more (almost completely withered))
herbicidal effect on Chinese sprangletop (D) (Chinese sprangletop): 4 (Herbicidal rate of 70% or more and less than 90%)
Herbicidal effect, C: oval-leafed pondweed (oval-leafed pondweed [3]): 0 (Herbicidal rate of 5% or less (almost no effect))
Herbicidal effect, B: Japanese bulrush (Japanese bulrush [4]): 0 (Herbicidal rate of 5% or less (almost no effect))
Herbicidal effect, A: late watergrass (late watergrass [5]): 3 (Herbicidal rate of 40% or more and less than 70%)
herbicidal effect rating, C: oval-leafed pondweed (oval-leafed pondweed [6]): 0 (Herbicidal rate of 5% or less (almost no effect))
herbicidal effect on J: blackgrass (evaluation grade 0-5) (blackgrass; 320 g/ha): 1 (Herbicidal rate of 5% or more and less than 20%)
herbicidal effect on barnyard grass (H) (barnyard grass [7]): 5 (Herbicidal rate of 90% or more (almost completely withered))
herbicidal effect on L: windgrass (evaluation grade 0-5) (windgrass; 320 g/ha): 4 (Herbicidal rate of 70% or more and less than 90%)
herbicidal effect on K: Italian ryegrass (evaluation grade 0-5) (Italian ryegrass; 320 g/ha): 3 (Herbicidal rate of 40% or more and less than 70%)
herbicidal effect on H: barnyard grass (evaluation grade 0-5) (barnyard grass [8]; 320 g/ha): 4 (Herbicidal rate of 70% or more and less than 90%)
herbicidal effect on F: southern crabgrass (evaluation grade 0-5) (southern crabgrass; 320 g/ha): 0 (Herbicidal rate of 5% or less (almost no effect))
herbicidal effect on rice flat sedge (E) (rice flat sedge): 5 (Herbicidal rate of 90% or more (almost completely withered))
herbicidal effect on I: wild oat (evaluation grade 0-5) (wild oat; 320 g/ha): 3 (Herbicidal rate of 40% or more and less than 70%)
herbicidal effect on N: redroot pigweed (evaluation grade 0-5) (redroot pigweed; 320 g/ha): 5 (Herbicidal rate of 90% or more (almost completely withered))

Cc1nn(C)c(=O)c(-c2c(-c3ccc(OC4CCCCO4)cc3)sc3cc(F)c(F)cc23)c1O (stereo not drawn) [5-024]
Herbicidal effect by foliage application, M: velvetleaf (velvetleaf; [9]): 3 (Herbicidal rate of 40% or more and less than 70%)
herbicidal effect rating, A: late watergrass (late watergrass [1]): 0 (Herbicidal rate of 5% or less (almost no effect))
herbicidal effect rating, B: Japanese bulrush (Japanese bulrush [2]): 2 (Herbicidal rate of 20% or more and less than 40%)
Herbicidal effect by foliage application, P: chickweed (chickweed; [9]): 5 (Herbicidal rate of 90% or more (almost completely withered))
Herbicidal effect by foliage application, G: green foxtail (green foxtail; [9]): 3 (Herbicidal rate of 40% or more and less than 70%)
Herbicidal effect by foliage application, O: lambsquarters (lambsquarters; [9]): 5 (Herbicidal rate of 90% or more (almost completely withered))
Herbicidal effect by foliage application, R: persian speedwell (persian speedwell; [9]): 5 (Herbicidal rate of 90% or more (almost completely withered))
herbicidal effect on Chinese sprangletop (D) (Chinese sprangletop): 3 (Herbicidal rate of 40% or more and less than 70%)
Herbicidal effect, C: oval-leafed pondweed (oval-leafed pondweed [3]): 5 (Herbicidal rate of 90% or more (almost completely withered))
Herbicidal effect, B: Japanese bulrush (Japanese bulrush [4]): 0 (Herbicidal rate of 5% or less (almost no effect))
Herbicidal effect, A: late watergrass (late watergrass [5]): 3 (Herbicidal rate of 40% or more and less than 70%)
herbicidal effect rating, C: oval-leafed pondweed (oval-leafed pondweed [6]): 0 (Herbicidal rate of 5% or less (almost no effect))
Herbicidal effect by foliage application, J: blackgrass (blackgrass; [9]): 1 (Herbicidal rate of 5% or more and less than 20%)
herbicidal effect on barnyard grass (H) (barnyard grass [7]): 4 (Herbicidal rate of 70% or more and less than 90%)
Herbicidal effect by foliage application, L: windgrass (windgrass; [9]): 2 (Herbicidal rate of 20% or more and less than 40%)
Herbicidal effect by foliage application, K: Italian ryegrass (Italian ryegrass; [9]): 0 (Herbicidal rate of 5% or less (almost no effect))
Herbicidal effect by foliage application, H: barnyard grass (barnyard grass [8]; [9]): 3 (Herbicidal rate of 40% or more and less than 70%)
Herbicidal effect by foliage application, F: southern crabgrass (southern crabgrass; [9]): 4 (Herbicidal rate of 70% or more and less than 90%)
herbicidal effect on rice flat sedge (E) (rice flat sedge): 0 (Herbicidal rate of 5% or less (almost no effect))
Herbicidal effect by foliage application, I: wild oat (wild oat; [9]): 0 (Herbicidal rate of 5% or less (almost no effect))
Herbicidal effect by foliage application, N: redroot pigweed (redroot pigweed; [9]): 5 (Herbicidal rate of 90% or more (almost completely withered))
